In publication PMC5607274, “An iterative compound screening contest method for identifying target protein inhibitors using the tyrosine-protein kinase Yes” (Scientific Reports, 2017):

Target: T1, human recombinant Yes [a.a. 2–543 (end)] (Homo sapiens, UniProt P07947)
T1 construct: human recombinant Yes [a.a; 2–543 (end)]; purchased BPS Bioscience 40488
Experiment: ADP-Glo kinase assay, inhibition rates of Yes phosphorylation activity (first and second screening)
Type: biochemical
Conditions: first screening; mean of n = 4 wells; 10 μmol L−1 compound
Summary of the method: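 ADP-Glo luminescence measured inhibition of human recombinant Yes (a.a. 2–543) phosphorylation activity. In the first screen, each compound ran in 4 wells and inhibition rates were averaged. The second screen retested hits as compounds dissolved from fresh powder.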

T1 sequence (P07947 2-543): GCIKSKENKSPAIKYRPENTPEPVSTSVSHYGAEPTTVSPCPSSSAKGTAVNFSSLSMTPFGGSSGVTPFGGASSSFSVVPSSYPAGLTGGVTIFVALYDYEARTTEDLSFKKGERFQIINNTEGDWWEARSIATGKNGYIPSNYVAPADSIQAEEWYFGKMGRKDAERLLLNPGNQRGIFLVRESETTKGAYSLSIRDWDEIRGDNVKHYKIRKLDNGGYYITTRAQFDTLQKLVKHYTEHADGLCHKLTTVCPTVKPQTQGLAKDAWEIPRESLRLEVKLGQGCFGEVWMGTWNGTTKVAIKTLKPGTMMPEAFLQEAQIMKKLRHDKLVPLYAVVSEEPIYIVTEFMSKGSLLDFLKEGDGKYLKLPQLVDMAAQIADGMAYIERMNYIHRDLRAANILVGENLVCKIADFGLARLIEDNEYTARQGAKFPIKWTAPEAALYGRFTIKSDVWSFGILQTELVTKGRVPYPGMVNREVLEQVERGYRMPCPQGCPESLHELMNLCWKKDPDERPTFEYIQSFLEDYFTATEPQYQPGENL

| SMILES | First screening IR (inhibition rate) [%] |
| --- | --- |
| CCn1ncc2c(C(=O)NCc3cccc(OC)c3)cc(-c3ccccc3)nc21 [Compound Z224328394] | 6 |
| CCn1ncc2c(C(=O)NCc3cc(OC)c(OC)cc3OC)cc(-c3ccccc3)nc21 [Compound Z224953910] | 2 |
| Cc1ccc(-c2cc(C(=O)NC(C)c3ccccn3)c3cnn(C(C)C)c3n2)cc1 (stereo not drawn) [Compound Z225035912] | 16 |
| CCn1ncc2c(C(=O)Nc3ccc(F)c([N+](=O)[O-])c3)cc(-c3cccs3)nc21 [Compound Z225316878] | 31 |
| Cc1csc(CNC(=O)c2cc(-c3ccccc3)nc3c2cnn3C(C)C)n1 [Compound Z225893888] | 1 |
| Cc1ccc(-c2cc(C(=O)NC(c3ccccc3F)c3nccn3C)c3cnn(C(C)C)c3n2)s1 (stereo not drawn) [Compound Z225919834] | -2 |
| COc1ccc(/C=C/c2noc(C)c2NC(=O)c2cccs2)cc1 [Compound Z226257158] | 4 |
| Nc1nc(CSc2ncc(-c3ccc(F)cc3)o2)nc2ccccc12 [Compound Z226851604] | -34 |
| CCn1ncc2c(C(=O)OCC#N)cc(-c3cccs3)nc21 [Compound Z227189870] | 2 |
| CCNC(=O)c1cc(-c2ccccc2)nc2c1cnn2Cc1ccccc1 [Compound Z227991512] | 6 |
| O=C(NCCc1nc2ccccc2[nH]1)c1cc(-c2ccccc2)nc2c1cnn2Cc1ccco1 [Compound Z228153102] | 7 |
| O=c1[nH]c(SCc2coc(-c3ccccc3)n2)nc2sccc12 [Compound Z228473210] | -4 |
| NC(=O)COC(=O)c1cc(-c2ccccc2)nc2c1cnn2Cc1ccccc1 [Compound Z228517946] | 4 |
| CNC(=O)NC(=O)COC(=O)c1cc(-c2ccccc2)nc2c1cnn2Cc1ccccc1 [Compound Z228518838] | -8 |
| Cc1cc(COC(=O)c2cc(-c3ccccc3)nc3c2cnn3Cc2ccccc2)no1 [Compound Z228519880] | -10 |
| N#Cc1cccc(/C=C2/C(=O)Nc3ccccc32)c1 [Compound Z228595564] | 8 |
| Cc1nn(C)c2nc(-c3ccccc3)cc(C(=O)Nc3ccc4[nH]c(=O)[nH]c4c3)c12 [Compound Z228695802] | -6 |
| O=C(Nc1ccc(N2CCOCC2)nc1)c1cc(-c2ccc(Cl)cc2)n[nH]1 [Compound Z229828974] | 8 |
| CN(C)c1nc(N)nc(CSCc2nc3ccccc3s2)n1 [Compound Z232651876] | -13 |
| O=C(NCCc1cnn(-c2ccccc2)c1)c1cnn(-c2ccccc2)c1 [Compound Z234515634] | -7 |
| O=C(NCc1ccco1)c1cc(-c2cccnc2)nc2c1cnn2Cc1ccccc1Cl [Compound Z234860216] | 19 |
| NC(=S)c1cc(C(=O)c2ccccc2O)cn2c1nc1ccccc12 [Compound Z235467022] | 5 |
| CC(=O)c1c[nH]c(C(=O)NCc2csc(-c3ccccc3)n2)c1 [Compound Z236994250] | 4 |
| CCN(C(=O)c1cc(-c2ccccc2)nc2c1cnn2Cc1cccnc1)c1ccccc1 [Compound Z238053762] | -11 |
| CN(C(=O)c1ccc2c(c1)CC(c1ccccc1)OC2=O)c1nc2ccccc2s1 (stereo not drawn) [Compound Z238298390] | -4 |
| O=C(CN1CCOCC1)N1CCN(Cn2nc(-c3ccccc3)n(-c3ccc(F)cc3)c2=S)CC1 [Compound Z238616284] | -5 |
| CC1CN(CCCNc2ccc([N+](=O)[O-])c3nonc23)CC(C)O1 (stereo not drawn) [Compound Z238688270] | 4 |

Continued, values first:

| First screening IR (inhibition rate) [%] | SMILES |
| --- | --- |
| -5 | O=S(=O)(c1ccccc1Cl)N1CCN(Cc2nc(-c3cccc(C(F)(F)F)c3)no2)CC1 [Compound Z224344580] |
| -5 | CCn1ncc2c(C(=O)N(C)Cc3ccc(SC)cc3)cc(-c3ccccc3)nc21 [Compound Z224588706] |
| -4 | CCn1ncc2c(C(=O)N3CCN(CC(=O)Nc4cccc(C)c4C)CC3)cc(-c3ccccc3)nc21 [Compound Z224933090] |
| 0 | Cc1cccn2c(NC(=O)c3cccc(S(=O)(=O)NC(C)C)c3)c(-c3ccccc3)nc12 [Compound Z225376048] |
| -8 | CCOC(=O)c1[nH]c(C)c(C(=O)CSc2n[nH]c(-c3ccccc3)n2)c1C [Compound Z225443610] |
| 9 | CCN(CC)S(=O)(=O)c1c[nH]c(C(=O)NCc2nc(C)cs2)c1 [Compound Z225896678] |
| 13 | O=C(NCc1ccc(COCC(F)(F)F)cc1)c1ccc2nc[nH]c2c1 [Compound Z226277016] |
| 6 | CC1CN(C(C)(C)CNC(=O)c2ccc(NS(=O)(=O)c3ccccc3)cc2)CC(C)O1 (stereo not drawn) [Compound Z226329302] |
| 3 | O=C(CCNC(=O)c1ccco1)Nc1ccc2nc(N3CCCC3)sc2c1 [Compound Z226430254] |
| 6 | COCCOC(=O)c1cc(-c2ccc(C)cc2)nc2c1cnn2C(C)C [Compound Z226924464] |
| 48 | Cc1cc(COC(=O)c2cc(-c3ccc4c(c3)OCCO4)nc3c2cnn3C(C)C)on1 [Compound Z227321660] |
| -10 | CCCn1c(CSc2ncn(-c3ccccc3)n2)nc2cc(S(=O)(=O)N(C)C)ccc21 [Compound Z227429876] |
| 14 | CCN(CC)CCn1c(NC(=O)c2ccc(OCC(F)(F)F)nc2)nc2ccccc21 [Compound Z228032620] |
| 50 | CC(=O)NCCNC(=O)c1cc(-c2ccccc2)nc2c1cnn2Cc1ccccc1Cl [Compound Z228081748] |
| 15 | Cc1cc(-c2cc(C(=O)Nc3ccc(N4CCN(C)CC4)nc3)c3cnn(C(C)C)c3n2)c(C)o1 [Compound Z228220646] |
| -1 | O=C(Nc1cccnc1)C1CCN(C(=O)c2ccc(C(F)(F)F)cc2)CC1 [Compound Z228734424] |
| -5 | Cn1ncc2c(NCC3(c4ccccc4)CC3)ncnc21 [Compound Z229243940] |
| -12 | CC(NC(=O)C(C)N1CCCN(Cc2ccc(C#N)cc2)CC1)c1ccccc1 (stereo not drawn) [Compound Z229381330] |
| 14 | Cc1ccccc1-c1cc(C(N)=O)c2cnn(C(C)C)c2n1 [Compound Z229615400] |
| 28 | Cc1ccc(CSCC(=O)NC(Cc2ncc[nH]2)c2ccccc2)cc1 (stereo not drawn) [Compound Z230096354] |

| First screening IR (inhibition rate) [%] | SMILES |
| --- | --- |
| 24 | O=C(CN1C(=O)c2ccccc2C1=O)NCc1cn(Cc2ccccc2)nc1-c1ccccc1 [Compound Z230132198] |
| 6 | CCn1c(C)cc(C(=O)N2CCc3[nH]c4ccccc4c3C2)c1C [Compound Z231937310] |
| 37 | Cc1cccc(N=C2NN=C(c3ccc(CCNS(C)(=O)=O)s3)CS2)c1C [Compound Z232307154] |
| -3 | CC(SCc1nc(N)nc(N(C)C)n1)C(=O)Nc1ccc(F)cc1 (stereo not drawn) [Compound Z232651902] |
| 13 | Cc1c(C#N)c(NC(=O)CN2CCN(c3ncnc4c3cnn4C)CC2)n(Cc2ccccc2)c1C [Compound Z234865770] |
| 27 | Cc1nn(C)c2nc(C3CC3)cc(C(=O)Nc3ccccc3O)c12 [Compound Z235446856] |
| 3 | Cc1ccc(-c2noc(CN3CCN(Cc4nc5ccccc5c(=O)n4Cc4ccco4)CC3)n2)cc1 [Compound Z235827834] |
| 39 | CCc1ccc(-n2c(-c3ccccc3)cn3c4c(=O)n(CCN5CCOCC5)c(=O)n(C)c4nc23)cc1 [Compound Z237376112] |
| 9 | Cc1cc(Cl)cc(Br)c1OCCNCCN(C)C.Cl [Compound Z237479802] |
| 3 | NS(=O)(=O)c1cccc(S(=O)(=O)Cl)c1 [Compound Z237480338] |
| -21 | CCCCN(C1CCS(=O)(=O)C1)S(C)(=O)=O (stereo not drawn) [Compound Z237523250] |
| 14 | Cc1ccc(-n2c(-c3ccccc3)cn3c4c(=O)n(CCN5CCOCC5)c(=O)n(C)c4nc23)cc1 [Compound Z237731508] |
| 5 | Cc1ccc(C)c(CN2CCN(c3nc4c(c(=O)[nH]c(=O)n4C)n3C/C=C/c3ccccc3)CC2)c1 [Compound Z237731644] |
| 8 | Cc1ccc(C)c(CN2CCN(c3nc4c(c(=O)[nH]c(=O)n4C)n3Cc3ccc(Cl)cc3)CC2)c1 [Compound Z237733696] |
| 36 | Cc1ccc(C)c(Cn2c(N3CCN(C/C=C/c4ccccc4)CC3)nc3c2c(=O)[nH]c(=O)n3C)c1 [Compound Z237733700] |
| -8 | NS(=O)(=O)c1cccc(S(=O)(=O)N2CCCCC2)c1 [Compound Z237744790] |
| -9 | CCCN(CCC)S(=O)(=O)c1cccc(S(N)(=O)=O)c1 [Compound Z237751694] |
| 0 | CCN(CC)C(CNC(=O)C1CCN(c2ccc3nnc(C(F)(F)F)n3n2)CC1)c1ccccc1 (stereo not drawn) [Compound Z237862822] |
| 5 | CC(C)(C)OC(=O)N1CCN(C(=O)c2cc(-c3ccccc3)nc3c2cnn3Cc2ccncc2)CC1 [Compound Z238073806] |
| 37 | CCOC(=O)c1sc2nc(CN3CCOCC3)nc(Nc3ccc(N4CCCCC4)nc3)c2c1C [Compound Z238683848] |

Same assay, conditions: second screening, dissolved from fresh powder; n = 4; 10 μmol L−1 compound

| Second screening IR (inhibition rate) [%] | SMILES |
| --- | --- |
| -3 | Cc1cccc(N=C2NN=C(c3ccc(CCNS(C)(=O)=O)s3)CS2)c1C [Compound Z232307154] |
| 20 | CCc1ccc(-n2c(-c3ccccc3)cn3c4c(=O)n(CCN5CCOCC5)c(=O)n(C)c4nc23)cc1 [Compound Z237376112] |
